Seven compounds from PubChem BioAssay (NCI) can be followed below.

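Protocol summary: plate cells (96-well), add compound at 5 concentrations, incubate 48 h, interpolate endpoints linearly. TGI marks complete inhibition of growth.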

Test systems include 786-0 renal; BT-549 breast; CCRF-CEM leukemia; COLO 205 colon; HCT-116 colon; HOP-92 NSCLC; HT29 colon; LOX IMVI melanoma; MCF7 breast; NCI-H226 lung; OVCAR-4 ovarian; OVCAR-5 ovarian; SF-268 CNS; SF-295 CNS; SF-539 CNS; SR leukemia; TK-10 renal; UACC-257 melanoma; UO-31 renal; MDA-N.
Holding throughout (test): NCI-60 cell line screen, 48 h

As for `Cn1c(=O)oc2cc(C(O)CN3CCN(Cc4ccc5c(c4)OCO5)CC3)ccc21` (configuration not stated), the TGI in the test with 786-0 renal, in the test on BT-549 breast, in the test with CCRF-CEM leukemia, in the test on COLO 205 colon, with HCT-116 colon and in the test on HOP-92 NSCLC was > 100 µM throughout. Further, the TGI with HT29 colon, in the test with LOX IMVI melanoma, with MCF7 breast, in the test on NCI-H226 lung, in the test on OVCAR-4 ovarian and with OVCAR-5 ovarian was > 100 µM throughout. In addition, the TGI in the test with SF-268 CNS, in the test on SF-295 CNS, with SF-539 CNS, in the test with SR leukemia, with TK-10 renal and in the test on UACC-257 melanoma was > 100 µM throughout. Further, the TGI in the test on UO-31 renal is > 100 µM.
For the compound `C#CC(O)/C=C/C(O)CCCC(O)CC#CC(O)C#CCCCCC(O)/C=C/CCCCCC(=O)CCCCCCCCCCCCCC(O)C(O)C#CC(=O)O` (configuration not stated), the TGI in the test on 786-0 renal, with CCRF-CEM leukemia, in the test with COLO 205 colon, in the test on HCT-116 colon, with HOP-92 NSCLC and in the test on HT29 colon was > 25 µM each time. The TGI in the test with LOX IMVI melanoma was 9.88 µM; in the test on MCF7 breast it was > 25 µM; in the test on MDA-N, > 25 µM; with NCI-H226 lung it was > 25 µM; in the test with OVCAR-4 ovarian it was > 25 µM; in the test with OVCAR-5 ovarian, > 25 µM. Further, the TGI with SF-268 CNS is > 25 µM; in the test with SF-295 CNS, > 25 µM; with SR leukemia, 19.1 µM; in the test on TK-10 renal it was > 25 µM; in the test with UACC-257 melanoma, > 25 µM; in the test with UO-31 renal it was > 25 µM.
Consider `CCOC(=O)/C1=C(\C)N(Cc2ccccc2)C(=O)c2ccccc2C(=O)c2c(OC(C)=O)ccc(OC(C)=O)c21`, for which the TGI in the test on 786-0 renal was > 100 µM; in the test with CCRF-CEM leukemia, > 100 µM; with COLO 205 colon, > 100 µM; in the test on HOP-92 NSCLC, 43.9 µM; in the test with HT29 colon, > 100 µM; in the test with LOX IMVI melanoma, > 100 µM. In addition, the TGI in the test with MCF7 breast was 58.6 µM; in the test on MDA-N, > 100 µM; with OVCAR-4 ovarian, > 100 µM; with OVCAR-5 ovarian it was > 100 µM; in the test on SF-268 CNS, > 100 µM; in the test on SF-295 CNS, > 100 µM. Moreover, the TGI in the test on SF-539 CNS, in the test on SR leukemia, with TK-10 renal, with UACC-257 melanoma and in the test on UO-31 renal was > 100 µM each time.
With `O=C(O)CCC1C(=O)C2CCN1CC2` (configuration not stated), the TGI in the test with 786-0 renal, with CCRF-CEM leukemia, in the test on COLO 205 colon, in the test on HCT-116 colon, with HT29 colon and in the test with LOX IMVI melanoma was > 100 µM in each case. In addition, the TGI in the test on MCF7 breast, with MDA-N, in the test on NCI-H226 lung, in the test on OVCAR-4 ovarian, in the test on OVCAR-5 ovarian and in the test on SF-268 CNS was > 100 µM each time. The TGI in the test on SF-295 CNS, in the test with SF-539 CNS, in the test on SR leukemia, in the test on TK-10 renal, in the test with UACC-257 melanoma and in the test on UO-31 renal was > 100 µM throughout.
Consider `C#CCC(O)c1ccc(OC)c(OCc2ccccc2)c1` (configuration not stated), for which the TGI with 786-0 renal, with CCRF-CEM leukemia, in the test with COLO 205 colon, in the test on HCT-116 colon, in the test with HOP-92 NSCLC and in the test with HT29 colon was > 100 µM throughout. Also, the TGI in the test with LOX IMVI melanoma, in the test on MCF7 breast, in the test with MDA-N, with NCI-H226 lung, with OVCAR-4 ovarian and in the test with OVCAR-5 ovarian was > 100 µM each time. Further, the TGI in the test with SF-268 CNS, in the test with SF-295 CNS, in the test on SF-539 CNS, in the test with TK-10 renal, in the test with UACC-257 melanoma and in the test with UO-31 renal was > 100 µM in each case.
For `COC(=O)C1=C(C)NC(CF)=C(C(=O)OC)C1c1cccc2c(=O)c3ccccc3oc12` (configuration not stated), the TGI with 786-0 renal was 33.8 µM; with BT-549 breast it was > 100 µM; in the test with CCRF-CEM leukemia, > 100 µM; in the test with COLO 205 colon, 22.8 µM; in the test on HCT-116 colon, > 100 µM; with HOP-92 NSCLC it was 35.3 µM. Also, the TGI in the test on HT29 colon, in the test with LOX IMVI melanoma, in the test on MCF7 breast, in the test on NCI-H226 lung, in the test with OVCAR-4 ovarian and in the test on OVCAR-5 ovarian was > 100 µM in each case. In addition, the TGI is 63.6 µM in the test on SF-268 CNS; 22.7 µM with SF-295 CNS; > 100 µM in the test on SF-539 CNS; > 100 µM with SR leukemia; > 100 µM in the test on TK-10 renal; > 100 µM in the test with UACC-257 melanoma. The compound also yielded a TGI with UO-31 renal of 92.8 µM.
As for `OC(Cc1cnnc2ccccc12)C(Cl)(Cl)Cl` (configuration not stated), the TGI in the test with 786-0 renal, in the test on CCRF-CEM leukemia, with COLO 205 colon, in the test with HCT-116 colon, with HOP-92 NSCLC and in the test with HT29 colon was > 10 µM throughout. The TGI in the test on LOX IMVI melanoma, in the test with MCF7 breast, with MDA-N, in the test on NCI-H226 lung, in the test with OVCAR-4 ovarian and with SF-268 CNS was > 10 µM each time. Further, the TGI in the test on SF-295 CNS, with SF-539 CNS, in the test with SR leukemia, in the test on TK-10 renal, in the test with UACC-257 melanoma and in the test on UO-31 renal was > 10 µM throughout.
